From US20200325543A1, “DIAGNOSTIC METHOD” (TOLREMO THERAPEUTICS AG, priority 2017, published 2020)
Values joined by “and” are separate entries in the source; they are usually repeats but may differ in a detail not shown here. Equal entries are not always repeated. Structures can show the parent of a compound that is named as a salt. Where two headings read alike, the source gives them in different places.

Tested on: SOX2
Assay: Screen of a library of FDA-approved drugs for SOX2 antibody staining in A375 cells treated with PLX4720 and AZD6244
Conditions: for cor. loess: normalized and geometry-corrected (loess) signal; for norm: signal after plate normalization
[1] = A375 cells, 5 uM test drug with 1 uM PLX4720 and 0.5 uM AZD6244, 24 h
[2] = A375 cells, 5 uM test drug with 1 uM PLX4720 and 0.5 uM AZD6244, 24 h, raw signal (ratio of FL2 SOX2 antibody and FL3 nuclear staining), screen run in duplicate
[3] = Z-test against negative controls (DMSO), single dose 5 uM

CN1C[C@H](CNC(=O)OCc2ccccc2)C[C@@H]2c3cccc4c3c(cn4C)C[C@H]21 [METERGOUNE]
cor. loess [1]: 0.4209
raw [2]: 0.9793
norm [1]: 0.4023
z [3]: 4.666

O=c1[nH]c(=O)n([C@H]2C[C@H](O)[C@@H](CO)O2)cc1I [IDOXURIDINE]
cor. loess [1]: 0.715
raw [2]: 0.9726
norm [1]: 0.7167
z [3]: 6.136

Cc1ccc(-c2nc3ccc(C)cn3c2CC(=O)N(C)C)cc1 [ZOLPIDEM]
cor. loess [1]: 0.2522
raw [2]: 0.9798
norm [1]: 0.4412
z [3]: 3.432

CCCOc1ccc2nc(NC(=O)OC)[nH]c2c1 [OXIBENDAZOLE]
cor. loess [1]: 0.4781
raw [2]: 0.9763
norm [1]: 0.5578
z [3]: 6.505

CCCCN1CCCCC1C(=O)Nc1c(C)cccc1C (stereo not shown) [BUPIVACAINE HYDROCHLORIDE]
cor. loess [1]: 0.2934
raw [2]: 0.9835
norm [1]: 0.3196
z [3]: 3.991

IVERMECTIN
cor. loess [1]: 0.6358
raw [2]: 0.9726
norm [1]: 0.6393
z [3]: 3.761

O=C(Nc1ccc([N+](=O)[O-])cc1Cl)c1cc(Cl)ccc1O [NICLOSAMIDE]
cor. loess [1]: 0.7224
raw [2]: 0.97
norm [1]: 0.7648
z [3]: 9.828

Nc1ncn([C@@H]2O[C@H](CO)[C@@H](O)[C@H]2O)c(=O)n1 [AZACITIDINE]
cor. loess [1]: 0.9945
raw [2]: 0.9651
norm [1]: 0.9714
z [3]: 8.534

CC(=O)c1cc2c(o1)C(=O)c1ccccc1C2=O [Napabucasin]
cor. loess [1]: 0.8204
raw [2]: 0.9658
norm [1]: 0.8869
z [3]: 6.402

CCOC(=O)COc1ccc2c(=O)cc(-c3ccccc3)oc2c1 [EFLOXATE]
cor. loess [1]: 1.468
raw [2]: 0.955
norm [1]: 1.397
z [3]: 5.713

COC(=O)Nc1nc2ccc(C(=O)c3cccs3)cc2[nH]1 [NOCODAZOLE]
cor. loess [1]: 0.5311
raw [2]: 0.9766
norm [1]: 0.5009
z [3]: 3.142

C1CCC(C(CC2CCCCN2)C2CCCCC2)CC1 (stereo not shown) [PERHEXILINE MALEATE]
cor. loess [1]: 0.3464
raw [2]: 0.9786
norm [1]: 0.4809
z [3]: 4.713

CCN1CCN(Cc2ccc(Nc3ncc(F)c(-c4cc(F)c5nc(C)n(C(C)C)c5c4)n3)nc2)CC1 [LY2835219]
cor. loess [1]: 1.234
raw [2]: 0.963
norm [1]: 1.024
z [3]: 4.755

C[C@H]1O[C@@H](O[C@H]2[C@@H](O)C[C@H](O[C@H]3[C@@H](O)C[C@H](O[C@H]4CC[C@@]5(C)[C@H](CC[C@@H]6[C@@H]5CC[C@]5(C)[C@@H](C7=CC(=O)OC7)CC[C@]65O)C4)O[C@@H]3C)O[C@@H]2C)C[C@H](O)[C@@H]1O [DIGITOXIN]
cor. loess [1]: 1.488
raw [2]: 0.9468
norm [1]: 1.549
z [3]: 12.26

S=C(NCc1ccc2c(c1)OCO2)N1CCN(c2ncnc3c2oc2ccccc23)CC1 [Amuvatinib (MP-470), Amuvatinib]
cor. loess [1]: 0.5191
raw [2]: 0.9748
norm [1]: 0.6031
z [3]: 4.05

Cc1oncc1C(=O)Nc1ccc(C(F)(F)F)cc1 [LEFLUNOMIDE]
cor. loess [1]: 0.3194
raw [2]: 0.9816
norm [1]: 0.3831
z [3]: 4.346

Cc1cnc(Nc2ccc(OCCN3CCCC3)cc2)nc1Nc1cccc(S(=O)(=O)NC(C)(C)C)c1 [TG101348 (SAR302503)]
cor. loess [1]: 1.471
raw [2]: 0.9608
norm [1]: 1.142
z [3]: 5.665

CCCCCCCCCCCCCCCC[N+](C)(C)C.[Br-] [CETRIMONIUM BROMIDE]
cor. loess [1]: 5.014
raw [2]: 0.8841
norm [1]: 4.765
z [3]: 19.51

CCC(=O)OCC(=O)[C@@]1(OC(=O)CC)[C@@H](C)C[C@H]2[C@@H]3CCC4=CC(=O)C=C[C@]4(C)[C@@]3(F)[C@@H](O)C[C@@]21C [BETAMETHASONE 17,21-DIPROPIONATE]
cor. loess [1]: 0.4356
raw [2]: 0.9801
norm [1]: 0.4336
z [3]: 5.927

O=c1[nH]c(=O)n([C@H]2C[C@H](O)[C@@H](CO)O2)cc1F [FLOXURIDINE]
cor. loess [1]: 0.3344
raw [2]: 0.9795
norm [1]: 0.4513
z [3]: 4.549

COc1ccc2cc1Oc1ccc(cc1)C[C@H]1c3cc(c(OC)cc3CCN1C)Oc1c(OC)c(OC)cc3c1[C@H](C2)N(C)CC3 [Tetrandrine]
cor. loess [1]: 1.018
raw [2]: 0.9619
norm [1]: 1.018
z [3]: 7.2

CO[C@H]1/C=C/O[C@@]2(C)Oc3c(C)c(O)c4c(O)c(c(/C=N/N5CCN(C)CC5)c(O)c4c3C2=O)NC(=O)/C(C)=C\C=C\[C@H](C)[C@H](O)[C@@H](C)[C@@H](O)[C@@H](C)[C@H](OC(C)=O)[C@@H]1C [RIFAMPIN]
cor. loess [1]: 0.4025
raw [2]: 0.9792
norm [1]: 0.4925
z [3]: 3.454

CC(C)Oc1ccc2c(=O)c(-c3ccccc3)coc2c1 [IPRIFLAVONE]
cor. loess [1]: 0.3885
raw [2]: 0.9807
norm [1]: 0.3563
z [3]: 4.307

COc1cc([C@@H]2c3cc4c(cc3[C@@H](O[C@@H]3O[C@@H]5CO[C@@H](c6cccs6)O[C@H]5[C@H](O)[C@H]3O)[C@H]3COC(=O)[C@H]23)OCO4)cc(OC)c1O [TENIPOSIDE]
cor. loess [1]: 0.6446
raw [2]: 0.9667
norm [1]: 0.8759
z [3]: 8.769

CN(C)c1ccc2nc3ccc(=[N+](C)C)cc-3sc2c1 [METHYLENE BLUE]
cor. loess [1]: 0.5193
raw [2]: 0.9751
norm [1]: 0.5531
z [3]: 3.072

CC1(C)O[C@@H]2C[C@H]3[C@@H]4C[C@H](F)C5=CC(=O)C=C[C@]5(C)[C@@]4(F)[C@@H](O)C[C@]3(C)[C@]2(C(=O)CO)O1 [FLUOCINOLONE ACETONIDE]
cor. loess [1]: 0.4202
raw [2]: 0.9791
norm [1]: 0.434
z [3]: 3.463

CC(=O)OCC(=O)[C@@]1(O)[C@H](OC(C)=O)C[C@H]2[C@@H]3CCC4=CC(=O)C=C[C@]4(C)[C@@]3(F)[C@@H](O)C[C@@]21C [TRIAMCINOLONE DIACETATE]
cor. loess [1]: 0.3964
raw [2]: 0.9794
norm [1]: 0.4506
z [3]: 4.238

CC(C)COc1ccc(CNC(=O)N(Cc2ccc(F)cc2)C2CCN(C)CC2)cc1 [Pimavanserin]
cor. loess [1]: 0.7376
raw [2]: 0.9689
norm [1]: 0.7906
z [3]: 5.755

CC(=O)OCC(=O)[C@@]1(O)[C@H](C)C[C@H]2[C@@H]3CCC4=CC(=O)C=C[C@]4(C)[C@@]3(F)[C@@H](O)C[C@@]21C [DEXAMETHASONE ACETATE]
cor. loess [1]: 0.4615
raw [2]: 0.9769
norm [1]: 0.5088
z [3]: 3.803

CCOc1cc2ncc(C#N)c(Nc3ccc(F)c(Cl)c3)c2cc1NC(=O)/C=C/CN(C)C [Pelitinib (EKB-569), Pelitinib]
cor. loess [1]: 0.7376
raw [2]: 0.9677
norm [1]: 0.828
z [3]: 5.755

Cc1cn(-c2cc(NC(=O)c3ccc(C)c(Nc4nccc(-c5cnccn5)n4)c3)cc(C(F)(F)F)c2)cn1 [Radotinib]
cor. loess [1]: 0.7186
raw [2]: 0.9713
norm [1]: 0.7194
z [3]: 7.683

[O-][n+]1ccccc1[S-].[O-][n+]1ccccc1[S-].[Zn+2] [PYRITHIONE ZINC]
raw: 0.8268 and 0.898
z: 15.67 and 26.13

[H]/N=C(/NCCCCC)N/N=C/c1c[nH]c2ccc(OC)cc12 [TEGASEROD MALEATE]
cor. loess [1]: 0.2864
raw [2]: 0.9849
norm [1]: 0.2748
z [3]: 3.897

CCOc1cc2ncc(C#N)c(Nc3ccc(OCc4ccccn4)c(Cl)c3)c2cc1NC(=O)/C=C/CN(C)C [Neratinib (HKI-272), Neratinib]
cor. loess [1]: 4.182
raw [2]: 0.9044
norm [1]: 4.156
z [3]: 16.11

Nc1ccc2cc3ccc(N)cc3nc2c1 [PROFLAVINE HEMISULFATE]
cor. loess [1]: 0.3381
raw [2]: 0.9828
norm [1]: 0.2862
z [3]: 3.749

O=c1[nH]c(=O)n([C@H]2C[C@H](O)[C@@H](CO)O2)cc1C(F)(F)F [TRIFLURIDINE]
cor. loess [1]: 0.4387
raw [2]: 0.9796
norm [1]: 0.4485
z [3]: 5.969

CC[C@H]1CN2CCc3cc(OC)c(OC)cc3[C@@H]2C[C@@H]1C[C@H]1NCCc2cc(OC)c(OC)cc21 [EMETINE DIHYDROCHLORIDE]
z: 11.78
cor. loess [1]: 1.429
raw [2]: 0.9485
norm [1]: 1.489

C[C@]12CCC(=O)C(O)=C1CC[C@@H]1[C@@H]2CC[C@]2(C)C(=O)CC[C@@H]12 [FORMESTANE]
cor. loess [1]: 0.4179
raw [2]: 0.98
norm [1]: 0.3818
z [3]: 4.633

CCN(CC)C(=S)SSC(=S)N(CC)CC
cor. loess [1]: 0.5909
raw [2]: 0.973
norm [1]: 0.642
z [3]: 4.87

CC(=O)O[C@H]1C[C@H](O[C@H]2[C@@H](O)C[C@H](O[C@H]3[C@@H](O)C[C@H](O[C@H]4CC[C@@]5(C)[C@H](CC[C@@H]6[C@@H]5C[C@@H](O)[C@]5(C)[C@@H](C7=CC(=O)OC7)CC[C@]65O)C4)O[C@@H]3C)O[C@@H]2C)O[C@H](C)[C@H]1O[C@@H]1O[C@H](CO)[C@@H](O)[C@H](O)[C@H]1O [LANATOSIDE C]
cor. loess [1]: 1.074 and 1.059
raw [2]: 0.9723 and 0.963
norm [1]: 0.4949
